Data: US12226395B2, “Composition for preventing or treating neurodegenerative diseases, containing diterpene-based compound” (KOREA RESEARCH INSTITUTE OF BIOSCIENCE AND BIOTECHNOLOGY, priority 2017, dated 2025)
Like-named read-outs stand apart in the source and are kept apart here.

Key:
Type in all cases: cell-based
Nurr1 [1] = biological target: T1, Nurr1 (Homo sapiens, UniProt P43354); assay: Nurr1 activity, luciferase reporter analysis in transfected BE(2)C cells; settings: for Nurr1 activity (luciferase), multiple of 0.1% DMSO control: BE(2)C cells, 20 hours; for Nurr1 activation (in words): no concentration stated
T1 construct: 3 types of plasmid DNA, including DNA containing Nurr1-LBD and DNA with β-galactosidase, were transfected into BE(2)C cells; expressed in transfected cells; host or cells: BE(2)C cells
T1 sequence (P43354 360-595 limits assumed): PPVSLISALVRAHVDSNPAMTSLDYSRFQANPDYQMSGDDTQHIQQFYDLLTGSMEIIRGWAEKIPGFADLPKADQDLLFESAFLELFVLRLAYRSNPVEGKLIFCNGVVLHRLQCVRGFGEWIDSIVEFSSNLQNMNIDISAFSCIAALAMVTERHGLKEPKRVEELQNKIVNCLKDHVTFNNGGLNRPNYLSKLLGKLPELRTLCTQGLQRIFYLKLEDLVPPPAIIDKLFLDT
Excerpt: As in Example 2, Nurr1 activity according to the concentration of the diterpene isolated from the extract of Daphne genkwa was confirmed through luciferase analysis.
Specifically, after synthesizing a vector in which the gene having the nucleotide sequence (5′-CTCGGAGGACAGTACTCCG-3 SEQ ID NO:1) to which the GLA4 gene can bind is repeated 8 times to the reporter gene, luciferase, is synthesized, 3 types of plasmid DNA, including DNA containing Nurr1-LBD and DNA with β-galactosidase, were transfected into BE(2)C cells. After 6 hours, the compounds 1 to 10 separated in Example 2 were treated according to the concentrations in Table 1 below. The cells thus treated were cultured in a 5% carbon dioxide incubator at 37° C. for 20 hours, and then luciferase analysis was performed. As a control, 0.1% DMSO was used, and at this time, the activity was increased by multiple, and Amodiaquine was used as a positive control.

Nurr1 [2] = biological target: T1, Nurr1; assay: as above
[3] = tested on: nitric oxide production in microglia BV-2 cells; assay: Inhibition of nitric oxide production in LPS-treated microglia BV-2 cells (Griess reagent); settings: for Inhibition of nitric oxide production (in words): microglia BV-2 cells
Excerpt: The death of cranial nerve cells due to an inflammatory reaction in a microglia cell has been reported as one of the main causes of degenerative brain diseases such as dementia and Parkinson's disease. (Sarkar S et al., Neurotoxicology, 44, 250-262 (2014); Bower J H et al., Neurology, 67, 494-496 (2006)). Accordingly, the inhibition activity on nitric oxide production, a representative inflammatory factor, was investigated for the compounds isolated from Example 2 in a microglia. Specifically, microglia BV-2 cells were put into a 96-well plate at 5×10^4 cells/well, and cultured for 2 days, followed by incubation with LPS ([…]) for 24 hours with the compound isolated in Example 2 above. The culture supernatant was measured for absorbance at 540 nm using the Griess reagent to quantify nitrite to investigate the amount of nitric oxide production. Minocyline was used as a positive control.

[4] = BV-2 cells, LPS 24 hours, nitrite by Griess reagent, read-out: IC50, inhibition of nitric oxide production (Table 5)

## C=C(C)[C@@]12O[C@@]3(c4ccccc4)O[C@@H]1C1[C@@H]4O[C@]4(CO)[C@@H](O)[C@]4(O)C(=O)C(C)=CC4[C@@]1(O3)[C@H](C)[C@H]2OC(=O)c1ccccc1 (stereo partly drawn) [Formula 2, (2S,3aR,3cS,4aR,5S,5aS,8bR,9R,10R,10aS)-5,5a-dihydroxy-4a-(hydroxymethyl)-7,9-dimethyl-6-oxo-2-phenyl-10a-(prop-1-en-2-yl)-3a,3b,3c,4a,5,5a,8a,9,10,10a-decahydro-6H-2,8b-epoxyoxireno[2″,3″:6′,7′]azuleno[5′,4′:3,4]benzo[1,2-d][1,3]dioxol-10-yl benzoate]
Nurr1 [1]; High concentration = 1 μM (Table 1)
  Nurr1 activity (luciferase), multiple of 0.1% DMSO control: 1.9
Nurr1 [1]; Low concentration = 0.01 μM (Table 1)
  Nurr1 activity (luciferase), multiple of 0.1% DMSO control: 2.1
Nurr1 [1]; Mid concentration = 0.1 μM (Table 1)
  Nurr1 activity (luciferase), multiple of 0.1% DMSO control: 2.2
Nurr1 [1]
  Nurr1 activation (in words): better effect of increasing Nurr1 activity
Nurr1 [2]; 0.01 μM
  Nurr1 activation (in words): excellent effect of Nurr1 activity
[3]; Mus musculus, BV-2 cells, LPS 24 hours, nitrite by Griess reagent, read-out: IC50, inhibition of nitric oxide production (Table 4)
  IC50: 60 ± 20 nM
[3]
  Inhibition of nitric oxide production (in words): superior inhibition activity on nitric oxide production

## yuanhuatine [compound 14]
Nurr1 [1]
  Nurr1 activation (in words): better effect of increasing Nurr1 activity
Nurr1 [2]; 0.003 μM
  Nurr1 activation (in words): activated Nurr1
  Nurr1 activity (Table 3), relative to control treatment: 1.03 ± 0.15
Nurr1 [2]; 0.01 μM
  Nurr1 activity (Table 3), relative to control treatment: 0.94 ± 0.04
Nurr1 [2]; 0.03 μM
  Nurr1 activation (in words): significantly activates Nurr1
  Nurr1 activity (Table 3), relative to control treatment: *1.63 ± 0.18
Nurr1 [2]; 0.1 μM
  Nurr1 activity (Table 3), relative to control treatment: **1.68 ± 0.11
Nurr1 [2]; 0.3 μM
  Nurr1 activity (Table 3), relative to control treatment: **1.62 ± 0.11
Nurr1 [2]; 1 μM
  Nurr1 activity (Table 3), relative to control treatment: *1.67 ± 0.32
[3]; [4]
  IC50: 1030 nM
[3]
  Inhibition of nitric oxide production (in words): better inhibition activity on nitric oxide production

## C=C(C)[C@@]12O[C@@]3(/C=C/C=C/CCCCC)O[C@@H]1[C@@H]1[C@@H]4O[C@]4(CO)[C@@H](O)[C@]4(O)C(=O)C(C)=C[C@H]4[C@@]1(O3)[C@H](C)[C@H]2OC(C)=O [compound 13, yuanhuadine]
Nurr1 [1]
  Nurr1 activation (in words): better effect of increasing Nurr1 activity
Nurr1 [2]; 0.003 μM
  Nurr1 activation (in words): activated Nurr1
  Nurr1 activity (Table 3), relative to control treatment: 1.23 ± 0.09
Nurr1 [2]; 0.01 μM
  Nurr1 activity (Table 3), relative to control treatment: 1.35 ± 0.28
Nurr1 [2]; 0.03 μM
  Nurr1 activation (in words): significantly activates Nurr1
  Nurr1 activity (Table 3), relative to control treatment: *1.47 ± 0.17
Nurr1 [2]; 0.1 μM
  Nurr1 activity (Table 3), relative to control treatment: *1.42 ± 0.14
Nurr1 [2]; 0.3 μM
  Nurr1 activity (Table 3), relative to control treatment: *1.65 ± 0.2
Nurr1 [2]; 1 μM
  Nurr1 activity (Table 3), relative to control treatment: **1.47 ± 0.02
[3]; [4]
  IC50: 1800 nM

## C=C(C)[C@]12C[C@@H](C)[C@@]34O[C@](c5ccccc5)(O[C@@H]1C3[C@H](O)[C@@](O)(COC(=O)c1ccccc1)[C@@H](O)[C@@]1(O)C4C[C@H](C)[C@@H]1O)O2 (stereo partly drawn) [Formula 3, ((2S,3aR,4S,5S,6S,6aR,7S,8S,9bR,10R,11aR)-4,5,6,6a,7-pentahydroxy-8,10-dimethyl-2-phenyl-11a-(prop-1-en-2-yl)dodecahydro-5H-2,9b-epoxyazuleno[5′,4′:3,4]benzo[1,2-d][1,3]dioxol-5-yl)methyl benzoate]
Nurr1 [1]; High concentration = 10 μM (Table 1)
  Nurr1 activity (luciferase), multiple of 0.1% DMSO control: 1.4
Nurr1 [1]; Low concentration = 0.1 μM (Table 1)
  Nurr1 activity (luciferase), multiple of 0.1% DMSO control: 1.2
Nurr1 [1]; Mid concentration = 1 μM (Table 1)
  Nurr1 activity (luciferase), multiple of 0.1% DMSO control: 1.4
[3]; Mus musculus, BV-2, 24 h, read-out: IC50, inhibition of nitric oxide production (Table 4)
  IC50: 1060 ± 120 nM

## CCC/C=C/C=C/C=C/C(=O)O[C@@H]1[C@@H](C)[C@@]2(O)C(C=C(CO)C[C@]3(O)C(=O)C(C)=CC23)C2C(C)(C)[C@@]21OC(C)=O (stereo partly drawn) [compound 16, (4aR,7bS,8R,9R,9aS)-9a-acetoxy-4a,7b-dihydroxy-3-(hydroxymethyl)-1,1,6,8-tetramethyl-5-oxo-1a,1b,4,4a,5,7a,7b,8,9,9a-decahydro-1H-cyclopropa[3,4]benzo[1,2-e]azulen-9-yl (2E,4E,6E)-deca-2,4,6-trienoate]
Nurr1 [1]
  Nurr1 activation (in words): better effect of increasing Nurr1 activity
Nurr1 [2]; 0.03 μM
  Nurr1 activation (in words): significantly activates Nurr1
  Nurr1 activity (Table 3), relative to control treatment: *1.42 ± 0.15
Nurr1 [2]; 0.1 μM
  Nurr1 activity (Table 3), relative to control treatment: *1.68 ± 0.43
Nurr1 [2]; 0.3 μM
  Nurr1 activity (Table 3), relative to control treatment: *1.82 ± 0.51
Nurr1 [2]; 1 μM
  Nurr1 activity (Table 3), relative to control treatment: **1.53 ± 0.07
[3]; Mus musculus, BV-2, 24 h, read-out: IC50, inhibition of nitric oxide production (Table 5)
  IC50: 1780 nM
